pKi: −log10 of the molar value.

Our source for the Ki values is US9493411B2 (AbbVie Inc., priority 2013, dated 2016).

One experiment concerns the target T1, BRD4 (BDII_E352-M457) (Homo sapiens, UniProt O60885).
T1 construct: made in house
The experiment in a line: TR-FRET bromodomain binding assay, BRD4 second bromodomain. As to conditions: His-tagged BD2, Alexa647-labeled probe 30 nM; Ki calculated from IC50. How it is done: (§1) A time-resolved fluorescence resonance energy transfer (TR-FRET) assay was used to determine the affinities of compounds of the Examples listed in Table 1 for each bromodomain of BRD4. His-tagged first (BD1: amino acids K57-E168) and second (BD2: amino acids E352-E168) bromodomains of BRD4 were expressed and purified. An Alexa647-labeled BET-inhibitor was used as the fluorescent probe in the assay.
(§2) Compound dilution series were prepared in DMSO via a 3-fold serial dilution from 2.5 mM to 42 nM. Compounds were then diluted 6:100 in assay buffer (20 mM Sodium Phosphate, pH 6.0, 50 mM NaCl, 1 mM Ethylenediaminetetraacetic acid disodium salt dihydrate, 0.01% Triton X-100, 1 mM DL-Dithiothreitol) to yield 3× working solutions. Six microliters (μL) of the working solution was then transferred to white, low-volume assay plates (Costar #3673). A 1.5× assay mixture containing His-tagged bromodomain, Europium-conjugated anti-His antibody (Invitrogen PV5596) and the Alexa-647-conjugated probe molecule was also prepared. Twelve μL of this solution were added to the assay plate to reach a final volume of 18 μL. The final concentration of 1× assay buffer contains 2% DMSO, 50 μM-0.85 nM compound, 8 nM His-tagged bromodomain, 1 nM Europium-conjugated anti-His-tag antibody and 100 nM or 30 nM probe (for BDI or BDII, respectively). After a one-hour incubation at room temperature, TR-FRET ratios were determined using an Envision multilabel plate reader (Ex 340, Em […]).
(§3) TR-FRET data were normalized to the means of 24 no-compound controls (“high”) and 8 controls containing 1 μM un-labeled probe (“low”). Percent inhibition was plotted as a function of compound concentration and the data were fit with the 4 parameter logistic equation to obtain IC50s. Inhibition constants (Ki) were calculated from the IC50s, probe Kd and probe concentration. Typical Z′ values were between 0.65 and 0.75. The minimum significant ratio was determined to evaluate assay reproducibility (Eastwood et al., (2006) J Biomol Screen, 11: 253-261). The MSR was determined to be 2.03 for BDI and 1.93 for BDII, and a moving MSR (last six run MSR overtime) for both BDI and BDII was typically <3.

A further experiment addresses T2, BRD4 (BDI_K57-E168) (Homo sapiens, UniProt O60885).
T2 construct: BD1: amino acids K57-E168; made in house
Put plainly: TR-FRET bromodomain binding assay, BRD4 first bromodomain. As to conditions: His-tagged BD1, Alexa647-labeled probe 100 nM; Ki calculated from IC50. Here is the method:
as §1, §2, §3

As to `Cc1[nH]c(-c2ccc(-c3ccc(C(=O)N4CCN(C)CC4)cc3)cc2)cc1C(N)=O` [Example 114, 2-methyl-5-{4′-[(4-methylpiperazin-1-yl)carbonyl]biphenyl-4-yl}-1H-pyrrole-3-carboxamide], the results for the pKi at BRD4 (BDII_E352-M457) and at BRD4 (BDI_K57-E168) were 5.43 and 5.40, respectively.

`Cc1[nH]c(-c2cccc(-c3cn[nH]c3)c2)cc1C(N)=O` [Example 155, 2-methyl-5-[3-(1H-pyrazol-4-yl)phenyl]-1H-pyrrole-3-carboxamide]: the figures for the pKi on BRD4 (BDII_E352-M457) and at BRD4 (BDI_K57-E168) were 5.26 and 5.59, respectively.

As for `Cc1[nH]c(-c2ccccc2NC2CCNC2)cc1C(N)=O` (centres unmarked) [Example 64, 2-methyl-5-[2-(pyrrolidin-3-ylamino)phenyl]-1H-pyrrole-3-carboxamide], on BRD4 (BDI_K57-E168), the pKi (commonly the negative decadic logarithm of the Ki, by convention in mol/L) is 5.98.

Turning to `CC(=O)Nc1cccc(-c2cc(C(N)=O)c(C)[nH]2)c1` [Example 5, 5-[3-(acetylamino)phenyl]-2-methyl-1H-pyrrole-3-carboxamide], the pKi is 5.19 on BRD4 (BDII_E352-M457) and 5.09 on BRD4 (BDI_K57-E168).

With `Cc1[nH]c(-c2ccccc2NCc2cccc(Cl)c2)cc1C(N)=O` [Example 35, 5-{2-[(3-chlorobenzyl)amino]phenyl}-2-methyl-1H-pyrrole-3-carboxamide], the figures for the pKi at BRD4 (BDII_E352-M457) and on BRD4 (BDI_K57-E168) were 5.49 and 5.57, respectively.

On to `COC(=O)CCNC(=O)c1cc(-c2ccc(-c3c(C)noc3C)cc2)[nH]c1C` [Example 93, methyl N-({5-[4-(3,5-dimethyl-1,2-oxazol-4-yl)phenyl]-2-methyl-1H-pyrrol-3-yl}carbonyl)-beta-alaninate], for which the pKi on BRD4 (BDII_E352-M457) was 5.19; on BRD4 (BDI_K57-E168) it was 5.29.

As to `Cc1[nH]c(-c2cccc(-c3ccc4c(ccn4C)c3)c2)cc1C(N)=O` [Example 156, 2-methyl-5-[3-(1-methyl-1H-indol-5-yl)phenyl]-1H-pyrrole-3-carboxamide], the results for the pKi on BRD4 (BDII_E352-M457) and at BRD4 (BDI_K57-E168) were 4.66 and 5.07, respectively.

Consider `CC(=O)Nc1ccccc1-c1cc(C(N)=O)c(C)[nH]1` [Example 2, 5-[2-(acetylamino)phenyl]-2-methyl-1H-pyrrole-3-carboxamide], for which the pKi on BRD4 (BDII_E352-M457) is 4.67; at BRD4 (BDI_K57-E168), 5.53.

`Cc1[nH]c(-c2ccccc2Oc2ccc(Cl)cc2)cc1C(N)=O` [Example 116, 5-[2-(4-chlorophenoxy)phenyl]-2-methyl-1H-pyrrole-3-carboxamide]: the pKi at BRD4 (BDII_E352-M457) is 6.19; at BRD4 (BDI_K57-E168) it was 6.74.

For the compound `Cc1[nH]c(-c2ccccc2Oc2ccc3c(c2)CCC3)cc1C(N)=O` [Example 144, 5-[2-(2,3-dihydro-1H-inden-5-yloxy)phenyl]-2-methyl-1H-pyrrole-3-carboxamide], the pKi on BRD4 (BDII_E352-M457) was 5.91; on BRD4 (BDI_K57-E168), 6.35.

As to `CCOC(=O)Cc1ccc(OCc2ccccc2)c(-c2cc(C(N)=O)c(C)[nH]2)c1` [Example 165, ethyl [4-(benzyloxy)-3-(4-carbamoyl-5-methyl-1H-pyrrol-2-yl)phenyl]acetate], the pKi is 5.13 at BRD4 (BDII_E352-M457) and 6.23 at BRD4 (BDI_K57-E168).

`Cc1[nH]c(-c2cc(NS(C)(=O)=O)ccc2Oc2ccccc2)cc1C(N)=O` [Example 162, 2-methyl-5-{5-[(methylsulfonyl)amino]-2-phenoxyphenyl}-1H-pyrrole-3-carboxamide]: the values for the pKi at BRD4 (BDII_E352-M457) and at BRD4 (BDI_K57-E168) were 6.12 and 7.23, respectively.

`Cc1[nH]c(-c2ccc(-c3ccc(C(=O)N(C)C)cc3)cc2)cc1C(N)=O` [Example 108, 5-[4′-(dimethylcarbamoyl)biphenyl-4-yl]-2-methyl-1H-pyrrole-3-carboxamide]: the pKi on BRD4 (BDII_E352-M457) is 5.35; on BRD4 (BDI_K57-E168), 4.96.

For `Cc1[nH]c(-c2ccccc2N(Cc2cccs2)CC2CCCC2)cc1C(N)=O` [Example 60, 5-{2-[(cyclopentylmethyl)(thiophen-2-ylmethyl)amino]phenyl}-2-methyl-1H-pyrrole-3-carboxamide], the figures for the pKi on BRD4 (BDII_E352-M457) and on BRD4 (BDI_K57-E168) were 4.69 and 5.29, respectively.

For `Cc1[nH]c(-c2ccccc2NCc2ccc(Cl)c(Cl)c2)cc1C(N)=O` [Example 33, 5-{2-[(3,4-dichlorobenzyl)amino]phenyl}-2-methyl-1H-pyrrole-3-carboxamide], the figures for the pKi on BRD4 (BDII_E352-M457) and on BRD4 (BDI_K57-E168) were 4.88 and 5.02, respectively.

For `Cc1[nH]c(-c2ccccc2Oc2cccc3c2CCCC3)cc1C(N)=O` [Example 136, 2-methyl-5-[2-(5,6,7,8-tetrahydronaphthalen-1-yloxy)phenyl]-1H-pyrrole-3-carboxamide], the pKi on BRD4 (BDII_E352-M457) was 5.70; at BRD4 (BDI_K57-E168) it was 6.25.

`Cc1cccc(CNc2ccccc2-c2cc(C(N)=O)c(C)[nH]2)c1` [Example 25, 2-methyl-5-{2-[(3-methylbenzyl)amino]phenyl}-1H-pyrrole-3-carboxamide]: the pKi at BRD4 (BDII_E352-M457) is 5.67; at BRD4 (BDI_K57-E168), 5.90.

In the case of `Cc1[nH]c(-c2ccc(-c3ccc4ncccc4c3)cc2)cc1C(N)=O` [Example 113, 2-methyl-5-[4-(quinolin-6-yl)phenyl]-1H-pyrrole-3-carboxamide], the figures for the pKi on BRD4 (BDII_E352-M457) and at BRD4 (BDI_K57-E168) were 5.37 and 5.33, respectively.

Consider `Cc1[nH]c(-c2ccc(-c3cnn(Cc4ccccc4)c3)cc2)cc1C(N)=O` [Example 111, 5-[4-(1-benzyl-1H-pyrazol-4-yl)phenyl]-2-methyl-1H-pyrrole-3-carboxamide], for which the values for the pKi on BRD4 (BDII_E352-M457) and at BRD4 (BDI_K57-E168) were 5.24 and 5.16, respectively.

With `Cc1[nH]c(-c2ccccc2NS(=O)(=O)c2ccc(F)cc2F)cc1C(N)=O` [Example 84, 5-(2-{[(2,4-difluorophenyl)sulfonyl]amino}-phenyl)-2-methyl-1H-pyrrole-3-carboxamide], on BRD4 (BDI_K57-E168), the pKi is 4.97.

For `Cc1[nH]c(-c2cccc(Oc3ccc4c(c3)OCO4)c2)cc1C(N)=O` [Example 160, 5-[3-(1,3-benzodioxol-5-yloxy)phenyl]-2-methyl-1H-pyrrole-3-carboxamide], the pKi on BRD4 (BDI_K57-E168) was 4.94.

For the compound `Cc1[nH]c(-c2ccccc2NCc2ccc(NC(=O)OC(C)(C)C)cc2)cc1C(N)=O` [Example 50, tert-butyl [4-({[2-(4-carbamoyl-5-methyl-1H-pyrrol-2-yl)phenyl]amino}methyl)phenyl]carbamate], the pKi at BRD4 (BDI_K57-E168) is 5.30.

For the compound `Cc1[nH]c(-c2ccccc2-n2ccc(=O)cc2)cc1C(N)=O` [Example 120], the pKi at BRD4 (BDI_K57-E168) was 5.36.

For `CC(=O)n1cc(CN(CC2CCCC2)c2ccccc2-c2cc(C(N)=O)c(C)[nH]2)c2ccccc21` [Example 58, 5-(2-{[(1-acetyl-1H-indol-3-yl)methyl](cyclopentylmethyl)amino}phenyl)-2-methyl-1H-pyrrole-3-carboxamide], on BRD4 (BDI_K57-E168), the pKi is 5.33.

With `COc1cccc(-c2cccc(-c3cc(C(N)=O)c(C)[nH]3)c2)c1` [Example 151, 5-(3′-methoxybiphenyl-3-yl)-2-methyl-1H-pyrrole-3-carboxamide], the pKi at BRD4 (BDI_K57-E168) is 4.98.

For `Cc1[nH]c(-c2ccccc2NS(=O)(=O)c2ccc(O)cc2)cc1C(N)=O` [Example 88, 5-(2-{[(4-hydroxyphenyl)sulfonyl]amino}phenyl)-2-methyl-1H-pyrrole-3-carboxamide], on BRD4 (BDI_K57-E168), the negative logarithm of the Ki (pKi) was 5.07.

As to `Cc1[nH]c(-c2ccccc2NC2CN3CCC2CC3)cc1C(N)=O` (centres unmarked) [Example 71, 5-[2-(1-azabicyclo[2.2.2]oct-3-ylamino)phenyl]-2-methyl-1H-pyrrole-3-carboxamide], on BRD4 (BDI_K57-E168), the pKi is 6.20.

With `Cc1[nH]c(-c2ccccc2NS(=O)(=O)c2ccc(Cl)cc2)cc1C(N)=O` [Example 81, 5-(2-{[(4-chlorophenyl)sulfonyl]amino}phenyl)-2-methyl-1H-pyrrole-3-carboxamide], the negative-log Ki (pKi) at BRD4 (BDI_K57-E168) is 5.03.

`COc1ccc(CN(CC2CCCC2)c2ccccc2-c2cc(C(N)=O)c(C)[nH]2)cc1` [Example 61, 5-{2-[(cyclopentylmethyl)(4-methoxybenzyl)amino]phenyl}-2-methyl-1H-pyrrole-3-carboxamide]: the negative-log Ki (pKi) at BRD4 (BDI_K57-E168) was 5.08.

As to `Cc1[nH]c(-c2ccccc2NCc2cccc(NC(=O)OC(C)(C)C)c2)cc1C(N)=O` [Example 51, tert-butyl [3-({[2-(4-carbamoyl-5-methyl-1H-pyrrol-2-yl)phenyl]amino}methyl)phenyl]carbamate], the pKi on BRD4 (BDI_K57-E168) was 5.17.

`Cc1[nH]c(-c2cccc(/C=C/c3ccccc3)c2)cc1C(N)=O` [Example 157, 2-methyl-5-{3-[(E)-2-phenylethenyl]phenyl}-1H-pyrrole-3-carboxamide]: the pKi at BRD4 (BDI_K57-E168) is 5.13.

Take `Cc1[nH]c(-c2ccccc2Oc2ccc(S(C)(=O)=O)cc2)cc1C(N)=O` [Example 132, 2-methyl-5-{2-[4-(methylsulfonyl)phenoxy]phenyl}-1H-pyrrole-3-carboxamide]: the pKi on BRD4 (BDI_K57-E168) is 4.96.
